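Results reflect a 48-hour exposure of cells in 96-well plates to compound at five concentrations. TGI: total growth inhibition.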
Legend:
Test in all cases: growth of human tumour cells (NCI), 48 h
HCT-15 colon = test system: HCT-15 colon
HOP-92 NSCLC = test system: HOP-92 NSCLC
HT29 colon = test system: HT29 colon
LOX IMVI melanoma = test system: LOX IMVI melanoma
MCF7 breast = test system: MCF7 breast
MOLT-4 leukemia = test system: MOLT-4 leukemia
NCI-H522 lung = test system: NCI-H522 lung
SF-295 CNS = test system: SF-295 CNS
SK-OV-3 ovarian = test system: SK-OV-3 ovarian
SN12C renal = test system: SN12C renal
SNB-19 CNS = test system: SNB-19 CNS

| Compound | TGI (HCT-15 colon) | TGI (HOP-92 NSCLC) | TGI (HT29 colon) | TGI (LOX IMVI melanoma) | TGI (MCF7 breast) | TGI (MOLT-4 leukemia) | TGI (NCI-H522 lung) | TGI (SF-295 CNS) | TGI (SK-OV-3 ovarian) | TGI (SN12C renal) | TGI (SNB-19 CNS) |
| --- | --- | --- | --- | --- | --- | --- | --- | --- | --- | --- | --- |
| Cc1c(O)c(OC2OC(CO)C(O)C(O)C2O)cc2c1C=C[C@@H]1[C@@]2(C)C(=O)C[C@]2(C)[C@@H]([C@@](C)(O)C(=O)CCC(C)(C)O)[C@H](O)C[C@@]12C (stereo partly drawn) | 66.3 µM | 40.8 µM | 83.1 µM | 59.2 µM | > 100 µM | 63.7 µM | 67.2 µM | 36 µM | 42.1 µM | 44.1 µM | 54 µM |
| Cc1ccc2c(C(=O)c3c(C)n(CCN4CCOCC4)c4ccccc34)cccc2c1 | 35.4 µM | 73.1 µM | 25.6 µM | 42.1 µM | 16.8 µM | 36.3 µM | 29.3 µM | 37.1 µM | 61 µM | > 100 µM | > 100 µM |
| CC(C)(C)OC(=O)N1[C@@H]2Cc3ccc(N)cc3[C@@]1(C)c1ccccc12 | 32.9 µM | 52.3 µM | 44.1 µM | 62.1 µM | > 100 µM | 48.5 µM | 38.4 µM | > 100 µM | > 100 µM | 30.7 µM | > 100 µM |
| CN(Cc1cnc2nc(N)nc(N)c2n1)c1ccc(C(=O)NC(CCC(=O)NC(CC(P(=O)(O)O)P(=O)(O)O)C(=O)O)C(=O)O)cc1 (stereo not drawn) | > 100 µM | > 100 µM | > 100 µM | > 100 µM | > 100 µM | > 100 µM | > 100 µM | > 100 µM | > 100 µM | > 100 µM | > 100 µM |
| COc1ccc(C2SCC(=O)N2NC(=O)C(C)Oc2ccccc2C)cc1 (stereo not drawn) | > 100 µM | > 100 µM | > 100 µM | > 100 µM | > 100 µM | 87.9 µM | > 100 µM | > 100 µM | > 100 µM | > 100 µM | > 100 µM |
| COCC12CCC(OC)C34C5CC6(O)C(OC)CC(OC(C)=O)(C5C6OC(=O)c5ccccc5)C(C(OC)C13)C4N(C)C2 (stereo not drawn) | > 100 µM | > 100 µM | > 100 µM | > 100 µM | > 100 µM | > 100 µM | > 100 µM | > 100 µM | > 100 µM | > 100 µM | > 100 µM |
| O=C(N/N=C(/COc1ccccc1Cl)N=Cc1ccncc1)c1ccncc1 | > 100 µM | > 100 µM | > 100 µM | > 100 µM | > 100 µM | > 100 µM | > 100 µM | > 100 µM | > 100 µM | > 100 µM | > 100 µM |
| O=[N+]([O-])c1ccc(O)c(/C=N/c2nc(-c3ccccc3)cs2)c1 | > 89.7 µM | 75.2 µM | > 100 µM | 38.7 µM | > 100 µM | 43.3 µM | 38.1 µM | > 95.9 µM | 89.5 µM | > 100 µM | > 100 µM |
| COC(=O)c1cccc(OC)c1C#Cc1c(OC)cccc1OC | > 100 µM | > 100 µM | > 100 µM | > 100 µM | > 100 µM | > 100 µM | > 100 µM | > 100 µM | > 100 µM | > 100 µM | > 100 µM |
| Cc1cc(N(CCC#N)CCC#N)ccc1/C=C1\SC(=S)NC1=O | > 100 µM | > 100 µM | > 100 µM | > 100 µM | > 100 µM | > 100 µM | > 100 µM | > 100 µM | > 100 µM | > 100 µM | > 100 µM |
| COC(=O)NC(Cc1ccccc1)NC(C)=O (stereo not drawn) | > 100 µM | > 100 µM | > 100 µM | > 100 µM | > 100 µM | > 100 µM | > 100 µM | > 100 µM | > 100 µM | > 100 µM | > 100 µM |
| N=c1oc2ccccc2cc1-c1nc2ccccc2c(=O)[nH]1 | > 100 µM | 66.1 µM | > 100 µM | > 100 µM | > 100 µM | > 100 µM | > 100 µM | > 100 µM | > 100 µM | > 100 µM | > 100 µM |
| O=C1CS[C@@](CC(c2ccc(Cl)cc2)c2ccc(Cl)cc2)(c2ccc(Cl)cc2)N1 | > 100 µM | 75 µM | > 100 µM | 65.4 µM | 26.4 µM | 45 µM | > 100 µM | 47.5 µM | > 100 µM | 5.42 µM | > 100 µM |
| Cc1cc(N2CCCC2)c([N+](=O)[O-])cc1[N+](=O)[O-] | > 100 µM | > 100 µM | > 100 µM | > 100 µM | > 100 µM | > 100 µM | > 100 µM | > 100 µM | > 100 µM | > 100 µM | > 100 µM |
| CCCCCCCCCCCCCCCCCC(=O)Nc1ccn(C2CCC(COP(=O)(O)O)O2)c(=O)n1 (stereo not drawn) | > 100 µM | > 100 µM | > 100 µM | > 100 µM | > 100 µM | > 100 µM | > 100 µM | > 100 µM | > 100 µM | > 100 µM | > 100 µM |
| CCCC(=O)NC(Nc1ccc(F)cc1)(C(F)(F)F)C(F)(F)F | > 100 µM | > 100 µM | > 100 µM | > 100 µM | > 100 µM | > 100 µM | > 100 µM | > 100 µM | > 100 µM | > 100 µM | > 100 µM |
| COc1cc2c(cc1OC)[C@@](C)(C(O)C(O)C(C)(C)O)NCC2 (stereo partly drawn) | > 100 µM | > 100 µM | > 100 µM | > 100 µM | > 100 µM | > 100 µM | > 100 µM | > 100 µM | > 100 µM | > 100 µM | > 100 µM |
| CN(C)CC1CCC/C(=C\c2ccc(OC(=O)/C=C/c3ccc(Cl)c(Cl)c3)cc2)C1=O (stereo not drawn) | 6.84 µM | 4.27 µM | 4.68 µM | 4.01 µM | 5.79 µM | 4.13 µM | 8.28 µM | 26.2 µM | > 100 µM | 5.64 µM | 18.6 µM |
| COC1=C2C=[N+](C)C3C(=C2C=CC1OC)Cc1cc2c(cc13)OCO2 (stereo not drawn) | 35.3 µM | 49.3 µM | 26.3 µM | 39.6 µM | 21.5 µM | 17.8 µM | 21.4 µM | 29 µM | 28.3 µM | 18 µM | 17.2 µM |
| COC1(c2cccs2)c2ccccc2C(OC)(c2cccs2)c2ccccc21 (stereo not drawn) | > 100 µM | > 100 µM | > 100 µM | > 100 µM | > 100 µM | > 100 µM | > 100 µM | > 100 µM | > 100 µM | > 100 µM | > 100 µM |
| CN(C)CCNC(=O)c1ccc(Cl)c2cc3ccccc3nc12 | 7.15 µM | 2.2 µM | 4.9 µM | 1.4 µM | 3.58 µM | 4.03 µM | 2.07 µM | 4.33 µM | 12.8 µM | 4.18 µM | 14.3 µM |
| O=C(O)CNC(=O)c1ccc2cc(C(=O)N3CC(CCl)c4ccc([N+](=O)[O-])cc43)[nH]c2c1 (stereo not drawn) | > 100 µM | > 100 µM | > 100 µM | > 100 µM | > 100 µM | > 100 µM | > 100 µM | > 100 µM | > 100 µM | > 100 µM | > 100 µM |
| O=C1CS(=O)(=O)C(c2cccc(Oc3ccccc3)c2)N1c1ccccc1 (stereo not drawn) | 66 µM | 32.8 µM | > 100 µM | 32.7 µM | 33.3 µM | 65.7 µM | 47.9 µM | > 100 µM | > 100 µM | 39.7 µM | > 100 µM |
| COC(=O)C1=CON2C3CC4CC(C3)CC(C4)C12C (stereo not drawn) | > 100 µM | > 100 µM | > 100 µM | > 100 µM | > 100 µM | > 100 µM | > 100 µM | > 100 µM | > 100 µM | > 100 µM | > 100 µM |
| CC(=O)OC(C)(C)CCC(=O)[C@](C)(O)[C@H]1[C@H](O)C[C@@]2(C)[C@@H]3CC=C4C(C)=C(OC5OC(CO)C(O)C(O)C5O)C(=O)C[C@@H]4[C@]3(C)C(=O)C[C@]12C (stereo partly drawn) | > 100 µM | > 100 µM | > 100 µM | > 100 µM | > 100 µM | > 100 µM | > 100 µM | > 100 µM | > 100 µM | > 100 µM | > 100 µM |
| COc1ccc([C@]23CCN4COC[C@@H]([C@H]42)C2(CC3)OCC(C)(C)CO2)cc1OC | > 100 µM | > 100 µM | > 100 µM | > 100 µM | > 100 µM | > 100 µM | > 100 µM | > 100 µM | > 100 µM | > 100 µM | > 100 µM |
| COP(=O)(O)C(N)Cc1c[nH]c2ccccc12 (stereo not drawn) | > 100 µM | > 100 µM | > 100 µM | > 100 µM | > 100 µM | > 100 µM | > 100 µM | > 100 µM | > 100 µM | > 100 µM | > 100 µM |
| COc1ccc2c(c1)CCN1CCCc3ccccc3C21 (stereo not drawn) | > 100 µM | > 100 µM | > 100 µM | 57.9 µM | > 100 µM | > 100 µM | > 100 µM | > 100 µM | > 100 µM | > 100 µM | > 100 µM |
